Measured values reported in patent US6812229B1, “Carbamate derivative and agricultural/horticultural fungicide” (Kumiai Chemical Industry Co., Ltd., priority 1999, dated 2004).

Test system: Septoria nodorum
Test: Test for preventive effect on Septoria leaf blotch of wheat
Type: in vivo
Conditions: wheat seedlings (Norin-61-go), two-leaf stage, 50 ppm active ingredient, 10 ml per pot, evaluated 10 days after inoculation with Septoria nodorum
Description: [table] 10 Wheat seeds (variety: Norin-61-go) were sown in each plastic pot having a diameter of 6 cm, and grown in a greenhouse. […] Then, the seedlings were inoculated with Septoria nodorum […] controlled in a greenhouse. 10 Days after the inoculation, the total diseased area of the first leaves in each pot was observed and evaluated on the basis of the standards shown in Table 21.

Structure (SMILES)	Evaluation (total diseased area of the first leaves)
COC(=O)NCc1cc(C(C)=NOCc2cccc(C)n2)ccc1Cl (single isomer, unassigned) [A-286]	A (No diseased area)
COC(=O)NCc1cc(C(C#N)=NOCc2ccccc2)ccc1Cl [A-7]	A (No diseased area)
COC(=O)NCc1cc(C(C#N)=NOCc2ccccc2Cl)ccc1Cl [A-8]	B (Diseased area of less than 5%)
COC(=O)NCc1cc(C(C#N)=NOCc2ccccc2)ccc1C [A-20]	B (Diseased area of less than 5%)
COC(=O)NCc1cc(C(C#N)=NOCc2ccccc2Cl)ccc1C [A-21]	A (No diseased area)
CCCCON=C(C)c1ccc(Cl)c(CNC(=O)OC)c1 [A-52]	A (No diseased area)
CCC(C)ON=C(C)c1ccc(Cl)c(CNC(=O)OC)c1 (stereo not drawn) [A-53]	A (No diseased area)
COC(=O)NCc1cc(C(C)=NOCC(C)C)ccc1Cl [A-54]	A (No diseased area)
COC(=O)NCc1cc(C(C)=NOCC2CC2)ccc1Cl [A-56]	B (Diseased area of less than 5%)
COC(=O)NCc1cc(C(C)=NOCC(F)(F)F)ccc1Cl [A-70]	A (No diseased area)
COC(=O)NCc1cc(C(C)=NOc2ccccc2)ccc1Cl [A-73]	A (No diseased area)
COC(=O)NCc1cc(C(C)=NOCc2ccccc2OC)ccc1Cl [A-93]	A (No diseased area)
COC(=O)NCc1cc(C(C)=NOCc2cccc(OC)c2)ccc1Cl [A-94]	A (No diseased area)
COC(=O)NCc1cc(C(C)=NOCc2ccc(OC)cc2)ccc1Cl [A-95]	A (No diseased area)
COC(=O)NCc1cc(C(C)=NOCc2cccc(C#N)c2)ccc1Cl [A-102]	A (No diseased area)
COC(=O)NCc1cc(C(C)=NOCc2ccc(C#N)cc2)ccc1Cl [A-103]	B (Diseased area of less than 5%)
CCON=C(CC)c1ccc(Cl)c(CNC(=O)OC)c1 [A-111]	A (No diseased area)
COC(=O)NCc1cc(C(C)=NOCc2cccc(OC)c2)cc(C)c1Cl [A-157]	A (No diseased area)
COC(=O)NCc1cc(C(C)=NOCc2ccc(OC)cc2)cc(C)c1Cl [A-158]	A (No diseased area)
COC(=O)NCc1cc(C(C)=NOCc2cccc(C(F)(F)F)c2)cc(C)c1Cl [A-159]	A (No diseased area)
COC(=O)NCc1cc(C(C)=NOCc2ccc(C(F)(F)F)cc2)cc(C)c1Cl [A-160]	B (Diseased area of less than 5%)
COC(=O)NCc1cc(C(C)=NOCC=C(Cl)Cl)ccc1Cl [A-185]	A (No diseased area)

Structure (SMILES)	Evaluation (total diseased area of the first leaves)
CC=CCON=C(C)c1ccc(Cl)c(CNC(=O)OC)c1 [A-189]	A (No diseased area)
C=CCCON=C(C)c1ccc(Cl)c(CNC(=O)OC)c1 [A-198]	A (No diseased area)
COC(=O)NCc1cc(C(C)=NOCC=Cc2ccccc2)ccc1Cl [A-201]	A (No diseased area)
COC(=O)NCc1cc(C(C)=NOCc2ccccc2)ccc1Cl [A-206]	B (Diseased area of less than 5%)
COC(=O)NCc1cc(C(C)=NOCc2ccccc2Cl)ccc1Cl [A-207]	A (No diseased area)
COC(=O)NCc1cc(C(C)=NOCc2cccc(Cl)c2)ccc1Cl [A-208]	B (Diseased area of less than 5%)
COC(=O)NCc1cc(C(C)=NOC(C)c2ccccc2)ccc1Cl (stereo not drawn) [A-216]	A (No diseased area)
COC(=O)NCc1cc(C(C)=NOCc2ccccc2OC(F)(F)F)ccc1Cl [A-217]	A (No diseased area)
COC(=O)NCc1cc(C(C)=NOCc2cccc(OC(F)(F)F)c2)ccc1Cl [A-218]	A (No diseased area)
COC(=O)NCc1cc(C(C)=NOCc2ccccc2C#N)ccc1Cl [A-220]	A (No diseased area)
COC(=O)NCc1cc(C(C)=NOCC2OCCO2)ccc1Cl [A-241]	B (Diseased area of less than 5%)
COC(=O)NCc1cc(C(C)=NOCc2ccc3ccccc3c2)ccc1Cl [A-248]	B (Diseased area of less than 5%)
CCCCCCCON=C(C)c1ccc(Cl)c(CNC(=O)OC)c1 [A-251]	A (No diseased area)
COC(=O)NCc1cc(C(C)=NOCc2cccc(Cl)c2Cl)ccc1Cl [A-252]	A (No diseased area)
COC(=O)NCc1cc(C(C)=NOCc2cc(Cl)ccc2Cl)ccc1Cl [A-254]	A (No diseased area)
COC(=O)NCc1cc(C(C)=NOCc2ccc(Cl)c(Cl)c2)ccc1Cl [A-256]	A (No diseased area)
COC(=O)NCc1cc(C(C)=NOCc2cc(Cl)cc(Cl)c2)ccc1Cl [A-257]	A (No diseased area)
COC(=O)NCc1cc(C(C)=NOCc2cc(C)ccc2C)ccc1Cl [A-258]	B (Diseased area of less than 5%)
COC(=O)NCc1cc(C(C)=NOCc2cccc([N+](=O)[O-])c2)ccc1Cl [A-266]	B (Diseased area of less than 5%)
COC(=O)NCc1cc(C(C#N)=NOCCc2ccccc2)ccc1Cl [A-277]	B (Diseased area of less than 5%)
COC(=O)NCc1cc(C(C)=NOCc2cccc(C(=O)OC)c2)ccc1Cl [A-278]	B (Diseased area of less than 5%)
COC(=O)NCc1cc(C(C)=NOCc2cc(C)cc(C)c2)ccc1Cl [A-279]	B (Diseased area of less than 5%)

Structure (SMILES)	Evaluation (total diseased area of the first leaves)
COC(=O)NCc1cc(C(C)=NOCc2cccc(Cl)n2)ccc1Cl [A-285]	A (No diseased area)
CCC(=NOCC(C)=NOC)c1ccc(Cl)c(CNC(=O)OC)c1 [A-293]	A (No diseased area)
COC(=O)NCc1cc(C(C)=NOCc2ccccc2Cl)ccc1C [A-294]	B (Diseased area of less than 5%)
COC(=O)NCc1cc(C(C)=NOCc2ccccc2C)ccc1C [A-295]	B (Diseased area of less than 5%)
CCC(=NOCc1ccccc1Cl)c1ccc(Cl)c(CNC(=O)OC)c1 [A-296]	A (No diseased area)
CCC(=NOCc1ccccc1C(F)(F)F)c1ccc(Cl)c(CNC(=O)OC)c1 [A-297]	B (Diseased area of less than 5%)
CCC(=NOCc1ccccc1)c1ccc(Cl)c(CNC(=O)OC)c1 [A-303]	A (No diseased area)
CCC(=NOCc1cccc(OC)c1)c1ccc(Cl)c(CNC(=O)OC)c1 [A-304]	A (No diseased area)
CCC(=NOCc1ccccn1)c1ccc(Cl)c(CNC(=O)OC)c1 [A-305]	A (No diseased area)
COC(=O)NCc1cc(C(C)=NOCc2ncccc2C)ccc1Cl [A-306]	A (No diseased area)
COC(=O)NCc1cc(C(C)=NOC(C)c2ccccc2Cl)ccc1Cl (stereo not drawn) [A-309]	B (Diseased area of less than 5%)
COC(=O)NCc1cc(C(C)=NOC(C)c2cccc(Cl)c2)ccc1Cl (stereo not drawn) [A-310]	A (No diseased area)
COC(=O)NCc1cc(C(C)=NOC(C)c2ccc(Cl)cc2)ccc1Cl (stereo not drawn) [A-311]	A (No diseased area)
COC(=O)NCc1cc(C(C)=NOC(C)c2cccc(OC)c2)ccc1Cl (stereo not drawn) [A-312]	A (No diseased area)
COC(=O)NCc1cc(C(C)=NOC(C)c2cccc(C(F)(F)F)c2)ccc1Cl (stereo not drawn) [A-313]	A (No diseased area)
COC(=O)NCc1cc(C(C)=NOCc2ccccc2C(F)(F)F)ccc1C [A-314]	A (No diseased area)
COC(=O)NCc1cc(C(C)=NOCc2cccc(OC)c2)ccc1C [A-315]	A (No diseased area)
COC(=O)N(Cc1cccc(OC)c1)Cc1cc(C(C)=NOCc2cccc(OC)c2)ccc1C [A-322]	A (No diseased area)
COC(=O)NCc1cc(C(C)=NOCc2ccccc2)ccc1F [A-323]	A (No diseased area)
COC(=O)NCc1cc(C(C)=NOCc2ccccc2F)ccc1F [A-324]	A (No diseased area)
COC(=O)NCc1cc(C(C)=NOCc2ccccc2Cl)ccc1F [A-325]	A (No diseased area)
COC(=O)NCc1cc(C(C)=NOCc2ccccc2Br)ccc1F [A-326]	A (No diseased area)
